# Experimental data: patent US20210177814A1, “USE OF GUANABENZ OR DERIVATES THEREOF FOR THE TREATMENT OF TYPE I IFN-DEPENDENT PATHOLOGIES” (INSERM (Institut National de la Santé et de la Recherche …, priority 2018, published 2021)
# Target: T1, TLR9 (Homo sapiens, UniProt Q9NR96)
# T1 sequence (Q9NR96 26-1032): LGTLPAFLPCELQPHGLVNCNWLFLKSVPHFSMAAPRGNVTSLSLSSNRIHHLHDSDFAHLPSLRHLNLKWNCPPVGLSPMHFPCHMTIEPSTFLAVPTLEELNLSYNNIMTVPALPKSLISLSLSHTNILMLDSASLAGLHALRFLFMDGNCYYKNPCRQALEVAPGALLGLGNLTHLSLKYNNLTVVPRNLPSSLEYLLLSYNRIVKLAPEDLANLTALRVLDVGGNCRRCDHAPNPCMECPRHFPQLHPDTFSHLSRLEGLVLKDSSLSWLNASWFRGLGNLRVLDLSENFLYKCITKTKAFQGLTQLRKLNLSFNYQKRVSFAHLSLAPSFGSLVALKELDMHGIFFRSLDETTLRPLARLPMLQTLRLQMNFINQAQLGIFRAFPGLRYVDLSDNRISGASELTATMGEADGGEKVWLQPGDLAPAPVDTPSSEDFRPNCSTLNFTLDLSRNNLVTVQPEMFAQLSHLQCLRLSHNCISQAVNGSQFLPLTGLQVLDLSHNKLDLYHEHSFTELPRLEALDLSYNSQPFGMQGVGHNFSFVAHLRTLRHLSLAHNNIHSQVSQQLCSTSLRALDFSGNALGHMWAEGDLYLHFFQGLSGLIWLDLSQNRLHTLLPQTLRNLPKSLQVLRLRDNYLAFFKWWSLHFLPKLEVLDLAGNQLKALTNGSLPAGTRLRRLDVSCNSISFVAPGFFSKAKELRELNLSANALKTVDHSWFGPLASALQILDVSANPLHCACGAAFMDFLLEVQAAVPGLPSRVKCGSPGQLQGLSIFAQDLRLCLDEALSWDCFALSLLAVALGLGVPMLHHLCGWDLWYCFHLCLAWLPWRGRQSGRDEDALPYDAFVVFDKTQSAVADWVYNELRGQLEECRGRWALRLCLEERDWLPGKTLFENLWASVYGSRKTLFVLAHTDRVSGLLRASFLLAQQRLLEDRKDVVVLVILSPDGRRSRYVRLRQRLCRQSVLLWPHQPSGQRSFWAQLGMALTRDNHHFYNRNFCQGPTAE
# Experiment: Cytokine secretion by human primary blood pDCs activated with CpG ODN 2216 or lupus patient serum
# Format: cell-based
# Parameters: endogenous in cells; host or cells: human primary blood pDCs
# Settings: 3 μM CpG ODN 2216 or 2% lupus serum, GBZ 50 μM
# Experimental: FIG. 1: Guanabenz inhibits TLR3 and TLR9 activation in mouse Flt3-L DCs and human blood pDCs. A) Sorted bone marrow derived Flt3L-DCs were activated for 6 h with 10 μg/mL poly I:C LMW (TLR3 in DC1) or 1 μM ODN 1585 (TLR9 in pDCs). GBZ was added at 50 μM and inhibited IFN-β and Interleukin-6 (IL-6) production in activated cells. B) hTLR4, hTLR3, hTLR9 and hTLR7 expressed in the reporter HEK-Blue™ cells are inhibited by GBZ. TLR-expressing HEK-Blue™ cells were respectively activated with 100 ng/mL LPS, 10 μg/mL poly I:C LMW, 2.5 μM ODN 2006 or 5 μg/mL imiquimod, respectively. GBZ was added at 50 μM. TLR activity was measured indirectly through SEAP activity as absorbance at 405 nm. […] Protein concentration of IFN-α and TNF-α secreted were measured at the indicated time points or at 16 h. […]
# Mouse IFN-β quantification in culture supernatant was performed using the Mouse Interferon Beta ELISA kit (PBL InterferonSource); mouse IL-6, TNFα, IL-10, human TNFα and human IFNα were quantified using ELISA kit (eBioscience) respectively, according to manufacturer instructions.
# Given the efficiency of GBZ on mouse TLR3 and TLR9, we turned to human TLRs, in order to extend the relevance of our observations. GBZ-mediated inhibition was first evaluated on NF-kB signaling by monitoring secreted alkaline phosphatase (SEAP) reporter levels in HEK-293 cells expressing TLR3, TLR4, TLR7, TLR9 (FIG. 1B). […]
smiles,measurement,value
"NC(N)=N/N=C/c1c(Cl)cccc1Cl [GBZ, 2-(2,6-dichlorobenzylidene)-hydrazinecarboximidamide]",production of TNF-α,prevented
same,production of type-I IFN (IFN-α),prevented
